Assay results published in patent publication US5945426A, “Derivatives of pyrimidine for treating acute cerebrovascular disorders” (Nippon Shinyaku Co., Ltd., priority 1994, dated 1999).
Structures can show the parent of a compound that is named as a salt.

Experiments:
[1] = background art; cited from earlier work
[2] = system: pyramidal cells in the hippocampal CA-1 subfield; experiment: Delayed Neuronal Death (DND) Inhibitory Activity in Gerbils (transient ischemia, bilateral common carotid artery occlusion); format: in vivo; details: for DND inhibition (score of neuronal death in the hippocampal CA-1 subfield): given at reperfusion after 5-minute ischemia, score 0 (0-10% death) to 4 (75-100% death), control 4.00, n=5, **: p < 0.01 (Wilcoxon's U test)
Text: Delayed Neuronal Death (DND) Inhibitory Activity in Gerbils
The delayed neuronal death protective effect of the compound of the invention was confirmed by an experiment using gerbils. This test is the most widely used for all relevant in vivo evaluation protocols and it is reported that any drug showing DND inhibitory activity in this test system can be expected to be clinically effective in humans [GENDAI-IRYO, 24, 129-133 (1992), Neurology 1987, 37, 1281-1287).
Male gerbils weighing 60-80 g were anesthetized with pentobarbital sodium 35 mg/kg i.p. and placed in supine position. After the skin in the cervical region was incised, the bilateral common carotid arteries were exposed and sutures were placed around each artery. Both ends of each suture was introduced into a polyethylene tube and in suturing the incised wound, the tube was secured to the cervical skin with the suture emerged from the other end of the tube. On the following day, with the animal under no anesthesia, both ends of the suture were gently pulled out and the carotid artery snared by the suture was urged in a bent position into the tube to thereby occlude the carotid artery. After a transient ischemic loading of 5 minutes' duration by occlusion of the bilateral common carotid arteries, the arteries were reperfused. After 7 days, the brain was excised and fixed. A section centered around the hippocampus was prepared and Nissle-stained with 0.05% cresyl violet and the pyramidal cells in the hippocampal CA-1 subfield were microscopically examined for degeneration and death. The degree of neuronal death was scored according to the following criteria.
Criteria for evaluation of neuronal death in the hippocampal CA-1 subfield

[3] = system: cerebral infarction (middle cerebral artery occlusion); experiment: Protection of Cerebral Infarction in Rats With Middle Cerebral Artery Occlusion; format: in vivo, Male SD rats; details: 0.125 mg/kg, intravenously after middle cerebral artery occlusion
Text: Protection of Cerebral Infarction in Rats With Middle Cerebral Artery Occlusion
The cerebral infarction protective effect of the compound of the invention was confirmed in a rat middle cerebral artery occlusion model. This is an animal model of brain regional ischemia which is similar to human cerebral infarction and it is known that the model is useful as a therapeutic model as well (Cerebral Apoplexy Experiment Handbook, 91-97, 1990, published by ICP). Any drug showing cerebral infarction protective activity in this test system can be expected to be clinically effective in humans.
Male SD rats aged 7-8 weeks were anesthetized with ketamin hydrochloride 120-150 mg/kg, i.p. and the head was placed in lateral recumbent position on an operation table. […] Then, the frontal sections were photographed and using an image processor, the areas of infarction were measured. The percentage of the infarct area in the frontal section 6 mm caudal to frontal rostrum, that is at the striatal level, relative to the total area of the tissue section and the total infarct area of the 5 frontal sections prepared at 2 mm intervals from the frontal rostrum was calculated and the percentage of the total infarct area relative to the total area of all the sections was calculated. […]

NMDA receptor = experiment: NMDA-Induced Convulsion Inhibitory Activity; format: in vivo, Mice; details: 20 mg/kg, i.p. 30 minutes before NMDA 200 mg/kg i.p.
Procedure: NMDA-Induced Convulsion Inhibitory Activity
Mice were intraperitoneally dosed with 200 mg/kg of N-methyl-D-aspartate (NMDA) and observed for the consequent convulsion and death over a period of 30 minutes after administration. As test drugs, the compound of Example 1, compound of Example 2, compound of Reference Example 10, and compound of Reference Example 12 were used and each was administered intraperitoneally 30 minutes before administration of NMDA.

Acute Toxicity Study = format: in vivo
Procedure: Male SD rats (Slc:SD, Japan SLC) were used. The rats were purchased at 7 weeks of age and the animals which went through a week-long quarantine and acclimation were used in groups of 6. The dose volume was 5 ml/kg for intraperitoneal administration and 10 ml/kg for intravenous administration. […] The drug solutions were prepared using physiological saline and filtered through a 0.22 μm bacterial filter.

delayed neuronal death = details: background art; cited from earlier work

SMILES	DND inhibition (score of neuronal death in the hippocampal CA-1 subfield) ([2]; 50 mg/kg i.p.)	inhibition of NMDA-induced convulsion (NMDA receptor)	general condition of animals (Acute Toxicity Study; rat, in vivo, ip)	further results
Cc1cc(OCCN2CCN(c3ccccc3)CC2)nc(-c2ccccc2)n1 [4-methyl-2-phenyl-6-[2-(4-phenylpiperazin-1-yl)ethyloxy]pyrimidine]				α-sympatholytic activity (sedation, hypotension, and vasodilation) [1]: has α-sympatholytic activity (sedation, hypotension, and vasodilation)
Cc1nc(OCCCCCN2CCCCC2)cc(-c2ccc(F)cc2)n1.Cl [Example 1, 4-(4-Fluorophenyl)-2-methyl-6-(5-piperidinopentyloxy)pyrimidine hydrochloride]	0.60	did not inhibit		protection activity against the delayed neuronal death, post-ischemia dosing ([2]; single dose after a lapse of 1-2 hours after ischemia): exhibited a protection activity against the delayed neuronal death; inhibition of neuronal death in the rat model of persistent brain ischemia [3]: markedly inhibited neuronal death; general condition of animals (Acute Toxicity Study; intraperitoneal, observed daily for 7 days): no remarkable change; LD50 at 168 h (Acute Toxicity Study; rat, in vivo, ip, intraperitoneal): 65.8 mg/kg; LD50 at 168 h (Acute Toxicity Study; rat, in vivo, intravenous): 22.8 mg/kg
Cc1nc(OCCCCN2CCCCC2)cc(-c2ccc(F)cc2)n1.Cl [Example 2, 4-(4-Fluorophenyl)-2-methyl-6-(4-piperidinobutoxy)pyrimidine hydrochloride]	0.80	did not inhibit	no remarkable change	
Cc1nc(OCCCCCCN2CCCCC2)cc(-c2ccc(F)cc2)n1 [Example 3, 4-(4-Fluorophenyl)-2-methyl-6-(6-piperidinohexyloxy)primidine hydrochloride]			no remarkable change	DND inhibition (score of neuronal death in the hippocampal CA-1 subfield) ([2]; 30 mg/kg, i.p.): 0.60
Cc1cc(OCCCCN2CCCCC2)nc(-c2ccc(F)cc2)n1.Cl [Example 4, 2-(4-Fluorophenyl)-4-methyl-6-(4-piperidinobutoxy)pyrimidine hydrochloride]	0.60		no remarkable change	
Cc1cc(-c2ccc(F)cc2)cc(OCCCN2CCCCC2)n1.Cl [Example 16, 4-(4-Fluorophenyl)-2-methyl-6-(3-piperidinopropoxy)pyridine hydrochloride]	0.60		no remarkable change	
Cc1cc(-c2ccc(F)cc2)cc(OCCCCCN2CCCCC2)n1.Cl [Example 18, 4-(4-Fluorophenyl)-2-methyl-6-(5-piperidinopentyloxy)pyridine hydrochloride]	0.80		no remarkable change	
Cc1nc(OC(C)CCCN2CCCCC2)cc(-c2ccc(F)cc2)n1.Cl (centres unmarked) [Example 21, 4-(4-Fluorophenyl)-2-methyl-6-(1-methyl-4-piperidinobutoxy)pyrimidine hydrochloride]	0.60		no remarkable change	
Cc1nc(OCCCN2CCCCC2)cc(-c2ccc(F)cc2)n1.Cl [Reference Example 10, 4-(4-Fluorophenyl)-2-methyl-6-(3-piperidinopropoxy)pyrimidine hydrochloride]	0.60	did not inhibit	no remarkable change	
Cc1cc(OCCCN2CCCCC2)nc(-c2ccc(F)cc2)n1.Cl [Reference Example 12, 2-(4-Fluorophenyl)-4-methyl-6-(3-piperidinopropoxy)pyrimidine hydrochloride]		did not inhibit		
CCCn1cnc2c1c(=O)n(CCCCC(C)=O)c(=O)n2C [propentofylline]				effect against delayed neuronal death (delayed neuronal death): effective against delayed neuronal death
